Test results from patent US20180256673A1, “METHODS FOR TREATING FUNGAL INFECTIONS” (priority 2015, published 2018).
Values joined by “and” are separate entries in the source; they are usually repeats but may differ in a detail not shown here. Identical values can stand only once. Like-named read-outs stand apart in the source and are kept apart here. Starred links: 1 amine or outer side, 2 acyl side, 3 side chain; linkers in the order of their positions; H or OH if unused. Positions of bridges follow the written chain, without caps; N, C: chain ends. Non-standard residues stand in square brackets, D forms with d. Residues, ends and D or L forms follow the SMILES beside them. *: point of attachment. Orn(4R-OH,5R-OCH2CH2NMe3+) = C[N+](C)(C)CCO[C@@H](N[*:3])[C@H](O)C[C@H](N[*:1])C(=O)[*:2]; pTerphenylCO(4''-OnC5H11) = CCCCCOc1ccc(-c2ccc(-c3ccc(C(=O)*)cc3)cc2)cc1; hTyr(3S-OH,4S-OH) = N[C@H](C(=O)O)[C@H](O)[C@@H](O)c1ccc(O)cc1; Pro(3S-OH,4S-Me) = C[C@H]1CN[C@H](C(=O)O)[C@H]1O; Hyp = O=C(O)[C@@H]1C[C@@H](O)CN1

Columns and labels:
[1] = test system: azole-resistant Candida albicans R357 strain; test: microbe, parasite or virus in culture; type: cell-based; conditions: Candida albicans
[2] = test system: C. glabrata ATCC 90030, ATCC 2001; type: cell-based, Candida glabrata; conditions: for Freq. (replicate mutation frequency): replicate plates 1-3, listed as CMP1; for Plate concentration: SDA, minimum concentration to cleanly inhibit growth
Description: (§1) Spontaneous mutant selection. […] Three individual colonies from each strain were used to start cultures in RPMI. […] One milliliter aliquots were spread onto SDA plates containing drug with sterile glass beads. Starting viable count was enumerated by triplicate plating of serial dilutions of the starting inoculum. […] Glycerol stocks of putative mutant colonies were stored at −80° C. […] Spontaneous mutation frequencies were calculated by dividing the number of resistant colonies on a given plate by the starting inoculum plated. A subset of mutants (weighted heavily towards those selected with CMP1) were then evaluated by MIC and sequencing of FKS gene hot spot regions.

Candida albicans = test: Broth microdilution of invasive fungal isolates (CLSI M27-A3/M38-A2); type: cell-based
C. parapsilosis CP02 [3] = test: microbe, parasite or virus in culture; type: cell-based, Candida parapsilosis; conditions: Lodderomyces parapsilosis
Aspergillus fumigatus = test: Broth microdilution of invasive fungal isolates (CLSI M27-A3/M38-A2), MEC; type: cell-based; conditions: 56 isolates
C. krusei ATCC 6258 = test: Broth microdilution MIC (CLSI), Examples 3 and 4; conditions: Pichia kudriavzevii, ATCC6258, 24 h, read-out: Broth MIC
Description: Antifungal susceptibility testing. Candida strains were cultured aerobically at 35° C. on SDA plates or in RPMI 1640 broth (pH 7.0). […] MIC assays were performed in triplicate.

[4] = test system: Cryptococcus neoformans var. grubii; test: Broth microdilution of invasive fungal isolates (CLSI M27-A3/M38-A2); type: cell-based; conditions: 19 isolates
C. albicans NRRL Y-477 = test: microbe, parasite or virus in culture; type: cell-based, Candida albicans; conditions: Candida albicans
Candida glabrata = test: microbe, parasite or virus in culture; type: cell-based
C. parapsilosis CP02 [5] = type: cell-based, Candida parapsilosis
Description: as §1

Compound: CCCCCOc1ccc(-c2ccc(-c3ccc(C(=O)N[C@H]4C[C@@H](O)[C@@H](OCC[N+](C)(C)C)NC(=O)[C@@H]5[C@@H](O)[C@@H](C)CN5C(=O)[C@H]([C@@H](C)O)NC(=O)[C@H]([C@H](O)[C@@H](O)c5ccc(O)cc5)NC(=O)[C@@H]5C[C@@H](O)CN5C(=O)[C@H]([C@@H](C)O)NC4=O)cc3)cc2)cc1 [Compound 1] ({pTerphenylCO(4''-OnC5H11)}-[Orn(4R-OH,5R-OCH2CH2NMe3+)]T[Hyp][hTyr(3S-OH,4S-OH)]T[Pro(3S-OH,4S-Me)]; lactam 1-C)
- MIC [1]: 0.125 µg/mL
- Median mutation frequency ([2]; ATCC 2001): 3.16E−08
- Freq. (replicate mutation frequency) ([2]; ATCC 2001): 3.16E−08 and 3.79E−08 and 1.17E−08
- Median mutation frequency ([2]; ATCC 90030): 1.35E−08
- Freq. (replicate mutation frequency) ([2]; ATCC 90030): 3.52E−08 and 1.26E−08 and 1.35E−08
- Plate concentration ([2]; ATCC 2001): 0.25 µg/mL
- Plate concentration ([2]; ATCC 90030): 0.25 µg/mL
- Cumulative % of isolates inhibited at MIC 0.015 μg/mL (Candida albicans; 251 isolates): (49.4) %
- Cumulative % of isolates inhibited at MIC 0.03 μg/mL (Candida albicans; 251 isolates): (85.7) %
- Cumulative % of isolates inhibited at MIC 0.06 μg/mL (Candida albicans; 251 isolates): (96.8) %
- Cumulative % of isolates inhibited at MIC 0.12 μg/mL (Candida albicans; 251 isolates): (100.0) %
- Cumulative % of isolates inhibited at MIC ≤0.008 μg/mL (Candida albicans; 251 isolates): (6.8) %
- Number of isolates inhibited at MIC 0.015 μg/mL (Candida albicans; 251 isolates): 107
- Number of isolates inhibited at MIC 0.03 μg/mL (Candida albicans; 251 isolates): 91
- Number of isolates inhibited at MIC 0.06 μg/mL (Candida albicans; 251 isolates): 28
- Number of isolates inhibited at MIC 0.12 μg/mL (Candida albicans; 251 isolates): 8
- Number of isolates inhibited at MIC ≤0.008 μg/mL (Candida albicans; 251 isolates): 17
- MIC50 (Candida albicans; Candida albicans, 251 isolates, read-out: MIC50): 0.03 µg/mL
- MIC90 (Candida albicans; Candida albicans, 251 isolates, read-out: MIC90): 0.06 µg/mL
- concentration at which all isolates were inhibited (Candida albicans; all 251 isolates): ≤ 0.12 µg/mL
- MIC (C. parapsilosis CP02 [3]; CP02, CP02 P20-1, selecting drug ANID): 4 µg/mL
- MIC (C. parapsilosis CP02 [3]; CP02, CP02 P20-1, selecting drug CMP1): 4 µg/mL
- MIC (C. parapsilosis CP02 [3]; CP02, read-out: MIC P20, CP02, total population after 20 passages with the selecting drug, MIC of selecting drug): 4 µg/mL
- Cumulative % of isolates inhibited at MEC 0.015 μg/mL (Aspergillus fumigatus): (92.9) %
- Cumulative % of isolates inhibited at MEC 0.03 μg/mL (Aspergillus fumigatus): (100.0) %
- Cumulative % of isolates inhibited at MEC ≤0.008 μg/mL (Aspergillus fumigatus): (41.1) %
- Number of isolates inhibited at MEC 0.015 μg/mL (Aspergillus fumigatus): 29
- Number of isolates inhibited at MEC 0.03 μg/mL (Aspergillus fumigatus): 4
- Number of isolates inhibited at MEC ≤0.008 μg/mL (Aspergillus fumigatus): 23
- MIC (C. krusei ATCC 6258): 0.06 µg/mL
- Cumulative % of isolates inhibited at MIC 8 μg/mL [4]: (31.6) %
- Cumulative % of isolates inhibited at MIC >8 μg/mL [4]: (100.0) %
- Number of isolates inhibited at MIC 8 μg/mL [4]: 6
- Number of isolates inhibited at MIC >8 μg/mL [4]: 13
- MIC50 ([4]; Cryptococcus neoformans, read-out: MIC50): 8 µg/mL
- MIC90 ([4]; Cryptococcus neoformans, read-out: MIC90): 8 µg/mL
- MIC (C. albicans NRRL Y-477; NRRLY477, 48 h, NRRL Y-477 P20-1, selecting drug ANID, Fks1 HS1 S645Y, 48 h read): 2 µg/mL
- MIC (C. albicans NRRL Y-477; NRRLY477, 48 h, NRRL Y-477 P20-1, selecting drug CMP1, 48 h read): 0.25 µg/mL
- MIC (C. albicans NRRL Y-477; NRRLY477, NRRL Y-477 P20-1, selecting drug CAS): 0.03 µg/mL
- MIC (C. albicans NRRL Y-477; NRRLY477, read-out: MIC P20, NRRL Y-477, total population after 20 passages with the selecting drug, MIC of selecting drug): 0.25 µg/mL
- Cumulative % of isolates inhibited at MIC 0.015 μg/mL (Candida glabrata): (3.0) %
- Cumulative % of isolates inhibited at MIC 0.03 μg/mL (Candida glabrata): (62.0) %
- Cumulative % of isolates inhibited at MIC 0.06 μg/mL (Candida glabrata): (91.0) %
- Cumulative % of isolates inhibited at MIC 0.25 μg/mL (Candida glabrata): (95.0) %
- Cumulative % of isolates inhibited at MIC 0.5 μg/mL (Candida glabrata): (95.0) %
- Cumulative % of isolates inhibited at MIC 1 μg/mL (Candida glabrata): (96.0) %
- Cumulative % of isolates inhibited at MIC 2 μg/mL (Candida glabrata): (99.0) %
- Cumulative % of isolates inhibited at MIC 4 μg/mL (Candida glabrata): (100.0) %
- Number of isolates inhibited at MIC 0.015 μg/mL (Candida glabrata): 3
- Number of isolates inhibited at MIC 0.03 μg/mL (Candida glabrata): 59
- Number of isolates inhibited at MIC 0.06 μg/mL (Candida glabrata): 29
- Number of isolates inhibited at MIC 0.12 μg/mL (Candida glabrata): 4
- Number of isolates inhibited at MIC 0.25 μg/mL (Candida glabrata): 0
- Number of isolates inhibited at MIC 0.5 μg/mL (Candida glabrata): 0
- Number of isolates inhibited at MIC 1 μg/mL (Candida glabrata): 1
- Number of isolates inhibited at MIC 2 μg/mL (Candida glabrata): 3
- Number of isolates inhibited at MIC 4 μg/mL (Candida glabrata): 1
- MIC50 (Candida glabrata; Nakaseomyces glabratus, read-out: MIC50): 0.03 µg/mL
- MIC90 (Candida glabrata; Nakaseomyces glabratus, read-out: MIC90): 0.06 µg/mL
- MIC (Candida glabrata; Nakaseomyces glabratus, read-out: MIC results): 2 to 4 µg/mL
- Median mutation frequency (C. parapsilosis CP02 [5]): 2.08E−08
- Plate concentration (C. parapsilosis CP02 [5]; SDA, minimum concentration to cleanly inhibit growth): 8 µg/mL
- Freq. (replicate mutation frequency) (C. parapsilosis CP02 [5]; replicate plates 1-3, listed as CMP1): 2.08E−08 (2×) and 9.62E−09
